Reference: article PMC11191095, “QSAR Reveals Decreased Lipophilicity of Polar Residues Determines the Selectivity of Antimicrobial Peptide Activity” (ACS Omega, 2024)
In brackets after ≈: the same amount, converted by molar mass. Where a SMILES comes first, the peptide text is derived from it.

Tests used:
Assay in all cases: microbe, parasite or virus in culture
[1] = test system: C. tropicalis NCPF 8760; type: cell-based; details: for MIC: Candida tropicalis, NCPF8760, read-out: Modal MIC (antibiogram); for Modal MIC50 / Modal MIC90: NCPF 8760, 20 h
Procedure: (§1) Antimicrobial activity was evaluated against a panel of 18 pathogens consisting of eight Gram-negative strains (E. coli NCTC 12923, E. coli LEC001, Pseudomonas aeruginosa PAO1, P. aeruginosa NCTC 13437, Acinetobacter baumannii ATCC 17978, A. baumannii AYE, Klebsiella pneumoniae M6, K. pneumoniae NCTC 13368), four Gram-positive strains (Staphylococcus aureus ATCC 9144, S. aureus NCTC 13616, S. aureus USA300, S. aureus 1199B) and six fungi (Candida auris TDG 1912, C. albicans NCPF 8018, C. krusei NCPF 3876, C. tropicalis NCPF 8760, and C. parapsilosis NCPF 3209). Pathogens were grown in noncation adjusted Mueller Hinton broth (MHB, for bacteria) or Roswell Park Memorial Institute (RPMI 1640) + 2% glucose (for fungi) at 37 °C with 180 rpm shaking and maintained on solid media (tryptic soy agar for bacteria and Sabouraud dextrose agar for fungi). For an antibiogram, see Suppl.
(§2) The 46 peptides were serially diluted (128 to 2 μg/mL) in media down polypropylene 96-well plates. Bacteria or fungi, diluted from an overnight culture to an OD600 of 0.01, were added to the serially diluted peptides at a 1:1 ratio resulting in a starting cell density of ∼5 × 10^5 CFU/mL. Plates were incubated at 37 °C for 20 h, and the optical density was determined spectrophotometrically at 600 nm. Minimum inhibition concentrations (MICs) were determined from a minimum of three biological repeats and are reported in μg/mL as well as μM. […] The MIC50 or MIC90 is defined as the lowest peptide concentration that results in 50% or 90% growth inhibition over a 20 h treatment period, respectively.

[2] = test system: C. albicans NCPF 3281; type: cell-based; details: for MIC: Candida albicans, NCPF3281, read-out: Modal MIC (antibiogram); for Modal MIC50 / Modal MIC90: NCPF 3281, 20 h
Procedure: as §1, §2

[3] = test system: C. krusei NCPF 3876; type: cell-based; details: for MIC: Pichia kudriavzevii, NCPF3876, read-out: Modal MIC (antibiogram); for Modal MIC50 / Modal MIC90: NCPF 3876, 20 h
Procedure: as §1, §2

[4] = test system: C. glabrata NCPF 8018; type: cell-based; details: for MIC: Nakaseomyces glabratus, NCPF8018, read-out: Modal MIC (antibiogram); for Modal MIC50 / Modal MIC90: NCPF 8018, 20 h
Procedure: as §1, §2

[5] = test system: C. parapsilosis NCPF 3209; type: cell-based; details: for MIC: Lodderomyces parapsilosis, NCPF3209, read-out: Modal MIC (antibiogram); for Modal MIC50 / Modal MIC90: NCPF 3209, 20 h
Procedure: as §1, §2

[6] = test system: C. auris TDG 1912; type: cell-based, Candida auris; details: Candidozyma auris, TDG1912, read-out: Modal MIC (antibiogram)
Procedure: as §1, §2

[7] = test system: E. coli NCTC 12923; type: cell-based, Escherichia coli; details: NCTC 12923, 20 h
Procedure: as §1, §2

[8] = test system: A. baumannii ATCC 17978; type: cell-based, Acinetobacter baumannii; details: ATCC 17978, 20 h
Procedure: as §1, §2

[9] = test system: A. baumannii AYE; type: cell-based, Acinetobacter baumannii; details: AYE, 20 h
Procedure: as §1, §2

[10] = test system: S. aureus (MSSA) ATCC 9144; type: cell-based, Staphylococcus aureus; details: ATCC 9144, 20 h
Procedure: as §1, §2

Compound | MIC [1] [µg/mL] | MIC [2] [µg/mL] | MIC [3] [µg/mL] | MIC [4] [µg/mL] | MIC [5] [µg/mL] | MIC [6] [µg/mL] | Modal MIC50 [1] [µM] | Modal MIC90 [1] [µM] | Modal MIC50 [2] [µM] | Modal MIC90 [2] [µM] | Modal MIC50 [3] [µM] | Modal MIC90 [3] [µM] | Modal MIC50 [4] [µM] | Modal MIC90 [4] [µM] | Modal MIC50 [5] [µM] | Modal MIC90 [5] [µM] | Modal MIC [7] [µM] | Modal MIC [8] [µM] | Modal MIC [9] [µM] | Modal MIC [10] [µM]
Cc1ccc(Oc2ccccc2-c2csc(N=C3NCCCN3)n2)c(C)c1 [Abafungin, reference compound] | > 128 | > 128 | 0.25 (≈ 0.661 µM) | > 128 | 0.25 to 0.5 (≈ 0.661 to 1.32 µM) | > 128 |  |  |  |  |  |  |  |  |  |  |  |  |  | 
C[C@@H]1[C@H](O)[C@@H](C)/C=C/C=C/C=C/C=C/C=C/C=C/C=C/[C@H](O[C@@H]2O[C@H](C)[C@@H](O)[C@H](N)[C@@H]2O)C[C@@H]2O[C@](O)(C[C@@H](O)C[C@@H](O)[C@H](O)CC[C@@H](O)C[C@@H](O)CC(=O)O[C@H]1C)C[C@H](O)[C@H]2C(=O)O [Amphotericin B, reference compound] | 0.03 (≈ 0.0325 µM) | 0.015 (≈ 0.0162 µM) | 0.06 (≈ 0.0649 µM) | 0.03 (≈ 0.0325 µM) | ≤ 0.007 | 0.03 (≈ 0.0325 µM) |  |  |  |  |  |  |  |  |  |  |  |  |  | 
CC(C)C[C@H](NC(=O)CNC(=O)[C@H](Cc1ccccc1)NC(=O)[C@H](CCCCN)NC(=O)[C@H](Cc1ccccc1)NC(=O)[C@H](C)NC(=O)[C@@H](N)CCCCN)C(=O)N[C@@H](CCCCN)C(=O)N[C@H](C(=O)N[C@H](C(N)=O)C(C)C)[C@@H](C)O [CPF-MW-10a] (H-KAFKFGLKTV-NH2) |  |  |  |  |  |  | > 110.8 | > 110.8 | > 110.8 | > 110.8 | > 110.8 | > 110.8 | > 110.8 | > 110.8 | > 110.8 | > 110.8 |  |  |  | 
CC(C)C[C@H](NC(=O)CNC(=O)[C@H](Cc1ccccc1)NC(=O)[C@H](CCCCN)NC(=O)[C@H](Cc1ccccc1)NC(=O)[C@H](C)NC(=O)[C@@H](N)CCCCN)C(=O)N[C@@H](CCCCN)C(=O)N[C@H](C(=O)N[C@H](C(=O)NCC(=O)N[C@@H](CCCCN)C(N)=O)C(C)C)[C@@H](C)O [CPF-MW-12a] (H-KAFKFGLKTVGK-NH2) |  |  |  |  |  |  | > 95.5 | > 95.5 | > 95.5 | > 95.5 | > 95.5 | > 95.5 | > 95.5 | > 95.5 | > 95.5 | > 95.5 |  |  |  | 
CC[C@H](C)[C@H](NC(=O)[C@H](CCCCN)NC(=O)[C@H](CC(C)C)NC(=O)[C@H](C)NC(=O)[C@H](C)NC(=O)[C@H](CCCCN)NC(=O)[C@H](CC(C)C)NC(=O)[C@H](C)NC(=O)[C@H](CCCCN)NC(=O)CN)C(=O)NCC(=O)N[C@@H](C)C(=O)N[C@@H](CC(N)=O)C(=O)N[C@H](C(=O)N[C@@H](CC(C)C)C(=O)NCC(=O)NCC(=O)N[C@@H](C)C(=O)N1CCC[C@H]1C(=O)N[C@@H](CCC(N)=O)C(N)=O)C(C)C [CPF-P3-20a] (H-GKALKAALKIGANVLGGAPQ-NH2) |  |  |  |  |  |  | > 65.7 | > 65.7 | > 65.7 | > 65.7 | > 65.7 | > 65.7 | > 65.7 | > 65.7 | > 65.7 | > 65.7 | 65.7 | 65.7 | 65.7 | 
CC[C@H](C)C[C@H](C)CCCCCCCCC(=O)N[C@H]1C[C@@H](O)[C@@H](NCCN)NC(=O)[C@@H]2[C@@H](O)CCN2C(=O)[C@H]([C@H](O)CCN)NC(=O)[C@H]([C@H](O)[C@@H](O)c2ccc(O)cc2)NC(=O)[C@@H]2C[C@@H](O)CN2C(=O)[C@H]([C@@H](C)O)NC1=O [Caspofungin, reference compound] | ≤ 0.007 | ≤ 0.007 | ≤ 0.007 | ≤ 0.007 | 0.125 (≈ 0.114 µM) | 0.03 (≈ 0.0274 µM) |  |  |  |  |  |  |  |  |  |  |  |  |  | 
OC(Cn1cncn1)(Cn1cncn1)c1ccc(F)cc1F [Fluconazole, reference compound] | 16 (≈ 52.2 µM) | 0.06 to 0.125 (≈ 0.196 to 0.408 µM) | 8 (≈ 26.1 µM) | 4 (≈ 13.1 µM) | 0.25 (≈ 0.816 µM) | > 128 |  |  |  |  |  |  |  |  |  |  |  |  |  | 
C[C@@H](c1ncncc1F)[C@](O)(Cn1cncn1)c1ccc(F)cc1F [Voriconazole, reference compound] | 0.5 (≈ 1.43 µM) | ≤ 0.007 | 0.06 (≈ 0.172 µM) | 0.125 (≈ 0.358 µM) | ≤ 0.007 | 1 (≈ 2.86 µM) |  |  |  |  |  |  |  |  |  |  |  |  |  | 
CC[C@H](C)[C@H](NC(=O)CNC(=O)[C@H](CCCCN)NC(=O)[C@H](Cc1c[nH]c2ccccc12)NC(=O)[C@H](Cc1c[nH]c2ccccc12)NC(=O)[C@@H](N)Cc1c[nH]c2ccccc12)C(=O)N[C@@H](CCCNC(=N)N)C(=O)NCC(=O)N[C@@H](Cc1ccc(O)cc1)C(=O)N[C@@H](CCCCN)C(=O)NCC(=O)NCC(=O)N[C@@H](Cc1ccc(O)cc1)C(=O)N[C@@H](CCCCN)C(=O)NCC(=O)N[C@@H](C)C(=O)N[C@@H](Cc1ccccc1)C(=O)N[C@@H](CCCCN)C(=O)N[C@@H](CCC(N)=O)C(=O)N[C@H](C(=O)N[C@@H](CCCCN)C(=O)N[C@@H](Cc1ccc(O)cc1)C(N)=O)[C@@H](C)O [W3(Os-C)a] (H-WWWKGIRGYKGGYKGAFKQTKY-NH2) |  |  |  |  |  |  | > 46.9 | > 46.9 | > 46.9 | > 46.9 | > 46.9 | > 46.9 | > 46.9 | > 46.9 | > 46.9 | > 46.9 | 23.5 | 11.7 | 5.9 | 11.7
CC[C@H](C)[C@H](NC(=O)CNC(=O)[C@H](CCCCN)NC(=O)[C@@H](N)Cc1c[nH]c2ccccc12)C(=O)N[C@@H](CCCNC(=N)N)C(=O)NCC(=O)N[C@@H](Cc1ccc(O)cc1)C(=O)N[C@@H](CCCCN)C(=O)NCC(=O)NCC(=O)N[C@@H](Cc1ccc(O)cc1)C(=O)N[C@@H](CCCCN)C(=O)NCC(=O)N[C@@H](C)C(=O)N[C@@H](Cc1ccccc1)C(=O)N[C@@H](CCCCN)C(=O)N[C@@H](CCC(N)=O)C(=O)N[C@H](C(=O)N[C@@H](CCCCN)C(=O)N[C@@H](Cc1ccc(O)cc1)C(N)=O)[C@@H](C)O [W(Os-C)a] (H-WKGIRGYKGGYKGAFKQTKY-NH2) |  |  |  |  |  |  | > 54.4 | > 54.4 | > 54.4 | > 54.4 | > 54.4 | > 54.4 | > 54.4 | > 54.4 | > 54.4 | > 54.4 |  | 27.2 | 13.6 | 54.4
CC[C@H](C)[C@H](NC(=O)[C@H](CCCCN)NC(=O)CNC(=O)[C@@H](N)CC(C)C)C(=O)N[C@@H](C)C(=O)N[C@@H](CCCCN)C(=O)N[C@H](C(=O)NCC(=O)N[C@@H](CC(C)C)C(=O)N[C@@H](CCCCN)C(N)=O)C(C)C [XPF10a] (H-LGKIAKVGLK-NH2) |  |  |  |  |  |  | > 120.6 | > 120.6 | > 120.6 | > 120.6 | > 120.6 | > 120.6 | > 120.6 | > 120.6 | > 120.6 | > 120.6 |  |  |  | 
